Test results: patent US12102638B2 (Urovant Sciences GmbH, priority 2017, dated 2024)
“And” between values parts separate entries of the source, which are not always exact repeats. Equal entries are not always repeated. Where two headings read alike, the source gives them in different places.

Experiments:
[1] = molecular target: CYP3A4 (Homo sapiens, UniProt P08684); assay: in vitro metabolism by CYPs; assay type: in vitro ADME
[2] = single rising oral dose Phase 1 pharmacokinetics in healthy subjects; assay type: in vivo, human; details: for AUC(0-t): read-out: AUC0-24
Protocol: All subjects were healthy adults. […] Systemic exposures were greater than dose proportional up to 600 mg.

[3] = molecular target: T1, β1-AR (Homo sapiens, UniProt P08588); assay: competition binding assay, membranes with recombinant β1-AR
T1 construct: expressed in transfected cells; membranes used
T1 sequence (P08588 whole entry): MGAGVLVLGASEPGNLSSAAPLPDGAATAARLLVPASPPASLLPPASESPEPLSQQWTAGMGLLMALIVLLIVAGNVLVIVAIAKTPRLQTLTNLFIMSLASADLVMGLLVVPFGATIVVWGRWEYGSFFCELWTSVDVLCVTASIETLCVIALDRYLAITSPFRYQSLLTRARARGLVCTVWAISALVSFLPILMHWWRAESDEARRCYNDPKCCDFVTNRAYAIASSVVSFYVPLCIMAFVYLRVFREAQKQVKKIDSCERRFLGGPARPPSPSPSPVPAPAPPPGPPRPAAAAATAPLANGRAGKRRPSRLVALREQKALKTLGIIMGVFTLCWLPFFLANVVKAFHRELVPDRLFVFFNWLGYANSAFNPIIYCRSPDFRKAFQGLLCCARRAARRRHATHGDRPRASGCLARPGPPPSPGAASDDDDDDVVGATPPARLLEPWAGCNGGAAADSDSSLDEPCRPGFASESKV

[4] = single-dose PK in patients with renal impairment; assay type: in vivo, human; details: for CL/F, geometric LS mean / Fe[urine]48 hr, geometric mean: single 100 mg
Excerpt: The relationship between clearance and renal function was modeled using linear regression.

[5] = effect of food on oral absorption (single and multiple dose); assay type: in vivo, human; details: for mean AUC0-24 with food compared to fasted state / mean Cmax with food compared to fasted state: 150 mg multiple oral doses, middle-aged and elderly females
[6] = system: men and women with OAB; assay: Phase 2b study in OAB, efficacy (voiding diary); assay type: in vivo, human
Excerpt: Part 2 was designed to continue to assess the safety and efficacy of concomitant dosing. […] Subjects in both Part 1 and Part 2 had the option of enrolling in a 1-year extension. Participants were required to keep a voiding diary, recording the occurrence of each strong urge, total incontinence, and urge incontinence episode. Efficacy data for Part 1 and Part 2 are summarized herein.
The total number of urgency incontinence episodes must have exceeded the total number of stress incontinence episodes for all subjects.

[7] = system: human plasma proteins; assay: plasma protein binding; assay type: in vitro ADME
[8] = molecular target: β2-AR (Homo sapiens, UniProt P07550); assay: competition binding assay, membranes with recombinant β2-AR
Sequence of β2-AR (P07550 whole entry): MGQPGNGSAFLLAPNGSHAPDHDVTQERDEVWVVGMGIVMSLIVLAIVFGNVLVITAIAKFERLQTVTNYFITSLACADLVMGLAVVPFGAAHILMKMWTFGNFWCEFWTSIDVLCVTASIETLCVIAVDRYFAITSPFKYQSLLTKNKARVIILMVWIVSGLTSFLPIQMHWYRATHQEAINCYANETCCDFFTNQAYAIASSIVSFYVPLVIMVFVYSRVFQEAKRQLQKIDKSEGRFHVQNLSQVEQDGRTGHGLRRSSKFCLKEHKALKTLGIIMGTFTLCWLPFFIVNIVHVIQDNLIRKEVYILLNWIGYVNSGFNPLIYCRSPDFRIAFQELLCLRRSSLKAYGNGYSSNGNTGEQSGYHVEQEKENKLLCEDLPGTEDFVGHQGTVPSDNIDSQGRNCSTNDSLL

[9] = drug interaction study of vibegron 75 mg and rifampin; details: for CL/F, geometric mean / V/F, geometric mean: single 75 mg
[10] = male, human, plasma, oral, 50 mg, single 50 mg, healthy young males
[11] = male, human, plasma, oral, 50 mg, single 50 mg, healthy young males, Japanese
[12] = Healthy Matched Control Subjects
[13] = 150 mg multiple doses, middle-aged females, Day 14
[14] = single 50 mg, Japanese young males
[15] = single 50 mg, non-Japanese young males
[16] = vibegron 3 mg once daily, OAB Wet subjects
[17] = vibegron 3 mg once daily, Part 1
[18] = vibegron 15 mg once daily, OAB Wet subjects
[19] = vibegron 15 mg once daily, Part 1
[20] = vibegron 50 mg once daily, OAB Wet subjects
[21] = vibegron 50 mg once daily, Part 1
[22] = vibegron 100 mg once daily, OAB Wet subjects

Sequence of CYP3A4 (P08684 whole entry): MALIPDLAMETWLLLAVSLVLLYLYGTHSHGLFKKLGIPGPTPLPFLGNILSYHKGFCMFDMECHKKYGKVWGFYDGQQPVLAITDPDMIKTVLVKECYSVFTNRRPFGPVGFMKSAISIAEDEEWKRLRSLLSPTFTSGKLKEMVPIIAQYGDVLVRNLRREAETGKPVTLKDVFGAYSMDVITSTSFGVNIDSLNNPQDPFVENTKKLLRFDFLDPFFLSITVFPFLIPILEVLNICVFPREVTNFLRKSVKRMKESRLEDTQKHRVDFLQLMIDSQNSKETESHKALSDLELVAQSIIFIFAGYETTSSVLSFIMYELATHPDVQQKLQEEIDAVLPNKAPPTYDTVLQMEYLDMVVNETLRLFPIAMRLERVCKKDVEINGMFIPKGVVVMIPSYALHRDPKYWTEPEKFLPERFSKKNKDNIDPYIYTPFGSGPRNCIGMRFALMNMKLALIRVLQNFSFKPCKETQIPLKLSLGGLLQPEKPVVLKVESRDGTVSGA

Question: For `O=C(Nc1ccc(C[C@@H]2CC[C@H]([C@H](O)c3ccccc3)N2)cc1)[C@@H]1CCc2nccc(=O)n21` [vibegron, (6S)—N-[4-[[(2S,5R)-5-[(R)-hydroxy(phenyl)methyl]pyrrolidin-2-yl]methyl]phenyl]-4-oxo-7,8-dihydro-6H-pyrrolo[1,2-a]pyrimidine-6-carboxamide], which “CYP responsible for in vitro metabolism” value [1] is on record?
Answer: Its value is “CYP3A4 is the predominant CYP”.

Question: What about the Cmax [2, 10] of the same molecule?
Answer: The Cmax was 31.7 ± 35 ng/mL.

Question: What about the Cmax [2, 11] of the same molecule?
Answer: Its Cmax is 62.2 ± 20.4 ng/mL.

Question: And the AUC(0-t) [2, 11]?
Answer: Its AUC(0-t) is 385 ± 136 ng·h/mL.

Question: And the AUC(0-inf) ([2]; male, human, plasma, oral, 50 mg, single 50 mg, healthy young males, Japanese, read-out: AUC0-inf)?
Answer: The AUC(0-inf) was 885 ± 241 ng·h/mL.

Question: What about the AUC(0-t) [2, 10] of the same molecule?
Answer: Its AUC(0-t) is 219 ± 123 ng·h/mL.

Question: What about the AUC(0-inf) ([2]; male, human, plasma, oral, 50 mg, single 50 mg, healthy young males, read-out: AUC0-inf) of the same molecule?
Answer: Its AUC(0-inf) is 551 ± 262 ng·h/mL.

Question: What about the “t1/2, harmonic mean ± pseudo SD” value ([2]; single 20 mg, healthy young males) of the same molecule?
Answer: Its value is 64.2 ± 12.6 h.

Question: What about the “t1/2, harmonic mean ± pseudo SD” value ([2]; single 50 mg, Elderly Male and Female) of the same molecule?
Answer: The value was 92 h and 92.1 ± 15.9 h.

Question: What about the “t1/2, harmonic mean ± pseudo SD” value ([2]; single 50 mg, healthy young males, Japanese) of the same molecule?
Answer: The value was 64.4 ± 8.7 h.

Question: And the “t1/2, harmonic mean ± pseudo SD” value ([2]; single 100 mg, healthy young males)?
Answer: The value was 72.8 ± 10.8 h.

Question: And the AUC(0-inf) ([2]; single 150 mg, healthy young males)?
Answer: The AUC(0-inf) was 2270 ± 911 ng·h/mL.

Question: What about the “t1/2, harmonic mean ± pseudo SD” value ([2]; single 200 mg, healthy young males) of the same molecule?
Answer: Its value is 75.3 ± 9.1 h.

Question: And the “t1/2, harmonic mean ± pseudo SD” value ([2]; single 200 mg, healthy young males, Japanese)?
Answer: The value was 58.4 ± 9.0 h.

Question: What about the “t1/2, harmonic mean ± pseudo SD” value ([2]; single 300 mg, healthy young males, Japanese) of the same molecule?
Answer: Its value is 59.7 ± 9.2 h.

Question: What about the “t1/2, harmonic mean ± pseudo SD” value ([2]; single 450 mg, healthy young males) of the same molecule?
Answer: Its value is 60.0 ± 9.4 h.

Question: What about the “binding to β1-AR” value [3] of the same molecule?
Answer: The value was “does not bind”.

Question: What about the “AUC0-inf higher compared to healthy matched control” value ([4]; mild renal impairment) of the same molecule?
Answer: The value was 49%.

Question: What about the “CLR reduced compared to healthy matched control” value (shortened to “CLR reduced”) ([4]; mild renal impairment) of the same molecule?
Answer: Its value is 39%.

Question: What about the “Cmax higher compared to healthy matched control” value ([4]; mild renal impairment) of the same molecule?
Answer: Its value is 96%.

Question: And the “AUC0-inf higher compared to healthy matched control” value ([4]; moderate renal impairment)?
Answer: Its value is 106%.

Question: And the “CLR reduced” value ([4]; moderate renal impairment)?
Answer: Its value is 65%.

Question: And the “Cmax higher compared to healthy matched control” value ([4]; moderate renal impairment)?
Answer: Its value is 68%.

Question: And the “mean increase in AUC compared to subjects with normal renal function” value ([4]; moderate renal impairment)?
Answer: Its value is 1.6 fold.

Question: And the “AUC0-inf higher compared to healthy matched control” value ([4]; severe renal impairment)?
Answer: Its value is 83%.

Question: What about the “CLR reduced” value ([4]; severe renal impairment) of the same molecule?
Answer: The value was 82%.

Question: What about the “Cmax higher compared to healthy matched control” value ([4]; severe renal impairment) of the same molecule?
Answer: Its value is 42%.

Question: What about the “CL/F, geometric LS mean” value [4, 12] of the same molecule?
Answer: Its value is 64.9 L/h.

Question: And the “Fe[urine]48 hr, geometric mean” value [4, 12]?
Answer: The value was 7.9%.

Question: What about the “CL/F, geometric LS mean” value ([4]; Mild Renal Impairment) of the same molecule?
Answer: The value was 43.6 L/h.

Question: And the “Fe[urine]48 hr, geometric mean” value ([4]; Mild Renal Impairment)?
Answer: The value was 8.5%.

Question: What about the “CL/F, geometric LS mean” value ([4]; Moderate Renal Impairment) of the same molecule?
Answer: The value was 31.5 L/h.

Question: What about the “Fe[urine]48 hr, geometric mean” value ([4]; Moderate Renal Impairment) of the same molecule?
Answer: The value was 5.5%.

Question: What about the “CL/F, geometric LS mean” value ([4]; Severe Renal Impairment) of the same molecule?
Answer: Its value is 35.5 L/h.

Question: What about the “Fe[urine]48 hr, geometric mean” value ([4]; Severe Renal Impairment) of the same molecule?
Answer: The value was 2.1%.

Question: And the “CL/F increase per one mL/min/1.73 m^2 increase in eGFR” value ([4]; slope of linear regression)?
Answer: Its value is roughly 0.8%.

Question: What about the “reduction in mean AUC0-24hr with food vs fasted” value [5, 13] of the same molecule?
Answer: Its value is 20%.

Question: What about the “reduction in mean Cmax with food vs fasted” value [5, 13] of the same molecule?
Answer: The value was 47%.

Question: What about the “mean AUC0-24 with food compared to fasted state” value ([5]; Day 1) of the same molecule?
Answer: Its value is roughly 42%.

Question: And the “mean Cmax with food compared to fasted state” value ([5]; Day 1)?
Answer: The value was 59%.

Question: What about the “mean AUC0-24 with food compared to fasted state” value ([5]; Day 14) of the same molecule?
Answer: Its value is roughly 20%.

Question: And the “mean Cmax with food compared to fasted state” value ([5]; Day 14)?
Answer: Its value is 43%.

Question: What about the Ctrough ([5]; multiple dose 150 mg, day 14, Non-Japanese middle-aged females, Fasted) of the same molecule?
Answer: Its Ctrough is 62.7 ± 12.4 ng/mL.

Question: What about the “reduction in AUC0-inf with standard Japanese breakfast” value [5, 14] of the same molecule?
Answer: Its value is 37%.

Question: What about the “reduction in Cmax with standard Japanese breakfast” value [5, 14] of the same molecule?
Answer: The value was 52%.

Question: What about the “delay in Tmax with high-fat meal vs fasted” value [5, 15] of the same molecule?
Answer: The value was roughly 1 h.

Question: And the “reduction in AUC0-inf with high-fat meal vs fasted” value [5, 15]?
Answer: Its value is 46%.

Question: And the “reduction in Cmax with high-fat meal vs fasted” value [5, 15]?
Answer: Its value is 67%.

Question: What about the dose-response relationship ([6]; between 50 and 100 mg once daily) of the same molecule?
Answer: The dose-response relationship was “relatively shallow dose-response relationship”.

Question: What about the “Total Incontinence Episodes, difference from placebo Week 8, LS means” value (“Total Incontinence Episodes, difference” for short) [6, 16] of the same molecule?
Answer: The value was −0.18.

Question: What about the “Urgency Incontinence Episodes, difference from placebo Week 8, LS means” value [6, 16] of the same molecule?
Answer: Its value is −0.28.

Question: What about the “Micturitions, difference from placebo Week 8, LS means” value [6, 17] of the same molecule?
Answer: Its value is −0.46.

Question: And the “Urgency Episodes, difference from placebo Week 8, LS means” value [6, 17]?
Answer: Its value is −0.18.

Question: What about the “Total Incontinence Episodes, difference” value [6, 18] of the same molecule?
Answer: The value was −0.48.

Question: What about the “Urgency Incontinence Episodes, daily number, Week 8 mean” value [6, 18] of the same molecule?
Answer: Its value is 1.12.

Question: What about the “Urgency Incontinence Episodes, difference from placebo Week 8, LS means” value [6, 18] of the same molecule?
Answer: The value was −0.57.

Question: And the “Micturitions, difference from placebo Week 8, LS means” value [6, 19]?
Answer: Its value is −0.45.

Question: And the “Urgency Episodes, difference from placebo Week 8, LS means” value [6, 19]?
Answer: Its value is −0.67.

Question: And the “Total Incontinence Episodes, difference” value [6, 20]?
Answer: The value was −0.60.

Question: What about the “Urgency Incontinence Episodes, difference from placebo Week 8, LS means” value [6, 20] of the same molecule?
Answer: The value was −0.72.

Question: What about the “Micturitions, difference from placebo Week 8, LS means” value [6, 21] of the same molecule?
Answer: Its value is −0.64.

Question: What about the “Urgency Episodes, difference from placebo Week 8, LS means” value [6, 21] of the same molecule?
Answer: The value was −0.76.

Question: And the “average number of daily micturitions compared to placebo at Week 8” value ([6]; vibegron 100 mg and 50 mg treatment groups, Part 1)?
Answer: The value was “statistically significant decreases”.

Question: What about the “Total Incontinence Episodes, daily number, Week 8 mean” value [6, 22] of the same molecule?
Answer: The value was 1.12.

Question: What about the “Total Incontinence Episodes, difference” value [6, 22] of the same molecule?
Answer: Its value is −0.58.

Question: What about the “Urgency Incontinence Episodes, difference from placebo Week 8, LS means” value [6, 22] of the same molecule?
Answer: Its value is −0.71.

Question: And the “Micturitions, difference from placebo Week 8, LS means” value ([6]; vibegron 100 mg once daily, Part 1)?
Answer: Its value is −0.91.

Question: What about the “Micturitions, difference in LS means 100 mg − 50 mg” value ([6]; week 8) of the same molecule?
Answer: The value was −0.27.

Question: What about the “Total incontinence, difference in LS means 100 mg − 50 mg” value ([6]; week 8) of the same molecule?
Answer: Its value is 0.02.

Question: What about the “Urgency Episodes, difference in LS means 100 mg − 50 mg” value ([6]; week 8) of the same molecule?
Answer: Its value is −0.48.

Question: And the “Urgency incontinence, difference in LS means 100 mg − 50 mg” value ([6]; week 8)?
Answer: The value was 0.01.

Question: What about the “bound to human plasma proteins” value [7] of the same molecule?
Answer: The value was “approximately 49%”.

Question: And the unbound in plasma [7]?
Answer: Its unbound in plasma is 49%.

Question: And the “binding to β2-AR” value [8]?
Answer: Its value is “does not bind”.

Question: What about the “tolerability of vibegron and rifampin” value ([9]; healthy male and female subjects) of the same molecule?
Answer: Its value is “well tolerated”.

Question: What about the “CL/F, geometric mean” value ([9]; Vibegron + Rifampin 600 mg QD) of the same molecule?
Answer: The value was 57.3 L/h.

Question: And the “V/F, geometric mean” value ([9]; Vibegron + Rifampin 600 mg QD)?
Answer: The value was 6140 L.

Question: What about the “CL/F, geometric mean” value ([9]; Vibegron alone) of the same molecule?
Answer: The value was 57.2 L/h.

Question: What about the “V/F, geometric mean” value ([9]; Vibegron alone) of the same molecule?
Answer: Its value is 6930 L.

Question: What about the “subjects with an AE related to study drug” value ([9]; vibegron 75 mg and rifampin 600 mg QD) of the same molecule?
Answer: Its value is 15%.
